Source: ChEMBL document CHEMBL5331058, “Review of bioactivity and structure-activity relationship on baicalein (5,6,7-trihydroxyflavone) and wogonin (5,7-dihydroxy-8-methoxyflavone) derivatives: Structural modifications inspired from flavonoids in Scutellaria baicalensis” (Eur J Med Chem, 2022)
In brackets after ≈: the same amount, converted by molar mass.

Legend:
SH-SY5Y [1] = experiment: Neuroprotective activity against H2O2-induced cell damage in human SH-SY5Y cells assessed as cell viability preincubated for 36 hrs followed by H2O2 addition and measured after 12 hrs by MTT assay; assay type: functional, cell-based
SH-SY5Y [2] = experiment: Neuroprotective activity against H2O2-induced cell damage in human SH-SY5Y cells assessed as reduction in cell viability preincubated for 36 hrs followed by H2O2 addition and measured after 12 hrs by MTT assay; assay type: functional, cell-based
PC-12 [3] = experiment: Antioxidant activity in H2O2-induced cell damage in rat PC12 cells at 50 uM; assay type: functional
Acetylcholinesterase [4] = molecular target: T1, Acetylcholinesterase (Rattus norvegicus, UniProt P37136); experiment: Inhibition of rat cortex homogenate AChE preincubated for 5 mins followed by compound addition and measured after 15 mins by Ellman's method
T1 sequence (P37136 whole entry): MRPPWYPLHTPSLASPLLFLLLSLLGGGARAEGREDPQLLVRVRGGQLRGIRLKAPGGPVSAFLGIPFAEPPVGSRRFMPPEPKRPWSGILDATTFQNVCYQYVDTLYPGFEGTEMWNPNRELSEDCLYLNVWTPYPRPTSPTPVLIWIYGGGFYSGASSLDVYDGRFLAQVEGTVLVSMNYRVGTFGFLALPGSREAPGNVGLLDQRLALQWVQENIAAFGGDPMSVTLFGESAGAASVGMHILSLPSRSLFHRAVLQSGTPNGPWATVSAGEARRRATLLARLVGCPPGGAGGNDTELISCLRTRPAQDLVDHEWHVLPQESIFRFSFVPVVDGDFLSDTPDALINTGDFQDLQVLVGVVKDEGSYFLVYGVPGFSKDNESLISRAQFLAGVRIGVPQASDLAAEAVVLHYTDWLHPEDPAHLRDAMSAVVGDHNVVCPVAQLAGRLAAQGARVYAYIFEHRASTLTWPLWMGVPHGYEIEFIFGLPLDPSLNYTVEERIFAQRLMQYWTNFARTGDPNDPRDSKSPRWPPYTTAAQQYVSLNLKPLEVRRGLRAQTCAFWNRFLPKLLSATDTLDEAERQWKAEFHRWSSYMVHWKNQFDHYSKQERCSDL

Butyrylcholinesterase = Butyrylcholinesterase (Rattus norvegicus, UniProt Q9JKC1); experiment: Inhibition of rat serum homogenate BuChE preincubated for 5 mins followed by compound addition and measured after 15 mins by Ellman's method; assay type: cell-free
Acetylcholinesterase [5] = molecular target: T2, Acetylcholinesterase (Homo sapiens, UniProt P22303); experiment: Inhibition of human AChE by Ellman's spectrophotometric method
Influenza A virus = experiment: Antiviral activity against influenza A virus H1N1 infected in MDCK cells assessed as reduction in virus induced cytopathic effect by CPE assay; assay type: functional, organism-based
HepG2 = experiment: Antitumor activity against human HepG2 cells assessed as reduction in cell viability at 25 uM by colorimetric MTT assay relative to control; assay type: functional
DU-145 = experiment: Anticancer activity against human DU-145 cells assessed as inhibition of cell growth at 100 uM by colorimetric MTT assay relative to control; assay type: functional; design: scale not given: the % may be the effect or the level left
HGC-27 = experiment: Antiproliferative activity against human HGC-27 cells assessed as reduction in cell viability incubated for 48 hrs by MTT assay; assay type: functional, cell-based; details: HGC-27, 48 h
MGC-803 = experiment: Antiproliferative activity against human MGC-803 cells assessed as reduction in cell viability incubated for 48 hrs by MTT assay; assay type: functional, cell-based; details: MGC-803, 48 h
[6] = molecular target: Thymic stromal lymphopoietin (Homo sapiens) (UniProt Q969D9); experiment: Inhibition of N-terminal FLAG tagged/C-terminal 6 His tagged human TSLP at 1 uM preincubated for 2 hrs followed by compound addition and measured after 18 hrs by ELISA method relative to control; details: time 20.0 hrs
Alpha glucosidase [7] = molecular target: T3, Alpha glucosidase (Homo sapiens, UniProt O43451+P10253+P14410+Q2M2H8); experiment: Inhibition of alpha glucosidase (unknown origin) spectrophotometric analysis; assay type: protein assay
Alpha glucosidase [8] = molecular target: T3, Alpha glucosidase; experiment: Inhibition of alpha glucosidase (unknown origin); assay type: protein assay
PC-12 [9] = experiment: Cytotoxicity against H2O2-induced cell damage in rat PC12 cells assessed as reduction in cell viability at 50 uM incubated for 24 hrs by MTT assay relative to control; assay type: functional
[10] = Antioxidant activity assessed as DPPH radical scavenging activity; assay type: functional
[11] = Aqueous solubility of compound by UV spectroscopy method; assay type: physicochemical; details: water
Candida albicans = experiment: Antifungal activity against Candida albicans assessed as reduction in fungal growth incubated for 16 hrs by microdilution method; assay type: functional
Staphylococcus aureus = experiment: Antibacterial activity against Staphylococcus aureus assessed as bacterial growth inhibition incubated for 16 hrs; assay type: functional
Escherichia coli = experiment: Antibacterial activity against Escherichia coli assessed as bacterial growth inhibition; assay type: functional
Acetylcholinesterase [12] = molecular target: T2, Acetylcholinesterase; experiment: Inhibition of AChE (unknown origin)
[13] = molecular target: Amyloid-beta precursor protein (Homo sapiens) (UniProt P05067); experiment: Inhibition of self-induced amyloid beta (unknown origin) aggregation relative to control; details: concentration not given here
[14] = molecular target: Amyloid-beta precursor protein (Homo sapiens) (UniProt P05067); experiment: Inhibition of Cu2+ induced amyloid beta (unknown origin) aggregation relative to control; details: concentration not given here
[15] = molecular target: Amyloid-beta precursor protein (Homo sapiens) (UniProt P05067); experiment: Disaggregation of self-induced amyloid beta (unknown origin) fibrils relative to control
[16] = molecular target: Amyloid-beta precursor protein (Homo sapiens) (UniProt P05067); experiment: Disaggregation of Cu2+ induced amyloid beta (unknown origin) fibrils relative to control
Acetylcholinesterase [17] = molecular target: Acetylcholinesterase (Electrophorus electricus, UniProt O42275); experiment: Inhibition of electric eel AChE
Acetylcholinesterase [18] = molecular target: T2, Acetylcholinesterase; experiment: Inhibition of human AChE
[19] = Permeability of the compound across blood brain barrier at pH 7.4 incubated for 4 hrs by parallel artificial membrane permeation assay; assay type: ADME; details: pampa, pH 7.4, 4 h

T2 sequence (P22303 whole entry): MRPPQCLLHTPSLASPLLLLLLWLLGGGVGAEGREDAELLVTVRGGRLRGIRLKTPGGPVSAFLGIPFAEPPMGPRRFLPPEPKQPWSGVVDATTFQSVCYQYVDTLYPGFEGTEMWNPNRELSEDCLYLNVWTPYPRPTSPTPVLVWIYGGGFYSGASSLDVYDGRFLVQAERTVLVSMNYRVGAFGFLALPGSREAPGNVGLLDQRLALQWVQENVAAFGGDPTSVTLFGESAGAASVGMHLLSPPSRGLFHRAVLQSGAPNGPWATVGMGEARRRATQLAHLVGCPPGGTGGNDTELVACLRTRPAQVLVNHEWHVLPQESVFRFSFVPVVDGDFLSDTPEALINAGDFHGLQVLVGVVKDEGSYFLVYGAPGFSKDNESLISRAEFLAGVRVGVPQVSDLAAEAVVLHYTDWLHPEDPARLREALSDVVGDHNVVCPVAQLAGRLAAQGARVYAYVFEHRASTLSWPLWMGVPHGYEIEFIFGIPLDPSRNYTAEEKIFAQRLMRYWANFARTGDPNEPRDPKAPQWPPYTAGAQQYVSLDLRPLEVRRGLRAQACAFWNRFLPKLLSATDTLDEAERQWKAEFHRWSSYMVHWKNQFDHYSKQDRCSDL
Sequence of Amyloid-beta precursor protein (Homo sapiens) (P05067 whole entry): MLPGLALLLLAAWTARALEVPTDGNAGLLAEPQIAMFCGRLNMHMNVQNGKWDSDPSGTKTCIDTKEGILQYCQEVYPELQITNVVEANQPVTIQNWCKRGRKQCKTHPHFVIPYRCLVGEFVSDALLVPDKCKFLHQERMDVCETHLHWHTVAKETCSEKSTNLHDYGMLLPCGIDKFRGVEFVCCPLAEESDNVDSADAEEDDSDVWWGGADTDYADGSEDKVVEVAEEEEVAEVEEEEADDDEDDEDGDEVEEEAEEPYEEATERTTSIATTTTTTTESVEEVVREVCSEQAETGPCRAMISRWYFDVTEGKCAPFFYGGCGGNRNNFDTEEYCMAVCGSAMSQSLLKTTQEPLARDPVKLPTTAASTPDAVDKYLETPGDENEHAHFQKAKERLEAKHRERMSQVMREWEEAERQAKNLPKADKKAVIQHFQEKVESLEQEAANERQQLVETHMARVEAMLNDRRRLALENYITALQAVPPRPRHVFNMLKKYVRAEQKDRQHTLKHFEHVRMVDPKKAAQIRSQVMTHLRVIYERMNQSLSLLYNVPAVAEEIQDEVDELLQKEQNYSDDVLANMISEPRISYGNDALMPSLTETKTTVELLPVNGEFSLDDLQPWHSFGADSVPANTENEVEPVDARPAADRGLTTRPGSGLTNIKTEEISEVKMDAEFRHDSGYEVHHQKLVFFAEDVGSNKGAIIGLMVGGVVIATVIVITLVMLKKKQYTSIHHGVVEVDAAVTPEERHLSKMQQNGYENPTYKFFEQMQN
Sequence of Thymic stromal lymphopoietin (Homo sapiens) (Q969D9 whole entry): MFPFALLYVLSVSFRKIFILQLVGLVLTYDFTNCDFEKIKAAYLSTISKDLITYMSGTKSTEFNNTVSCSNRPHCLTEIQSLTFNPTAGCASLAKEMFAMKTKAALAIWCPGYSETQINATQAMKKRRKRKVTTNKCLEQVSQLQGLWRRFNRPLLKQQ
Sequence of Butyrylcholinesterase (Q9JKC1 whole entry): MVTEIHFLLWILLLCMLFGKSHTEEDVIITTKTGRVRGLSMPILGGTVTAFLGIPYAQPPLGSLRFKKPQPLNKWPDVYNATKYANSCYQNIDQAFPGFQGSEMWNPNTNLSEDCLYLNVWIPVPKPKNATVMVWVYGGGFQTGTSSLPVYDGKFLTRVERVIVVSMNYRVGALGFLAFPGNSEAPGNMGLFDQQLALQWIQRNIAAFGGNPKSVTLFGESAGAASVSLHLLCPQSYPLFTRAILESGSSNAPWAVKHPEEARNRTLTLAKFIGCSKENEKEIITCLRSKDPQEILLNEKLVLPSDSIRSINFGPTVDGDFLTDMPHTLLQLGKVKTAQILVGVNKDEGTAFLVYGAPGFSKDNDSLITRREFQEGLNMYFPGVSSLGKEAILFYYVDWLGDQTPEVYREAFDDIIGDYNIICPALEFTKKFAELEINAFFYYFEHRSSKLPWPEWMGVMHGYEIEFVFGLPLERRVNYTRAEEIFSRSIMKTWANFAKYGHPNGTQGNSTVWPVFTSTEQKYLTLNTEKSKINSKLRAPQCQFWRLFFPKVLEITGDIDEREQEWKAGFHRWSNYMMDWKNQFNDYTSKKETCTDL
Sequence of Acetylcholinesterase (Electrophorus electricus, UniProt O42275) (O42275 whole entry): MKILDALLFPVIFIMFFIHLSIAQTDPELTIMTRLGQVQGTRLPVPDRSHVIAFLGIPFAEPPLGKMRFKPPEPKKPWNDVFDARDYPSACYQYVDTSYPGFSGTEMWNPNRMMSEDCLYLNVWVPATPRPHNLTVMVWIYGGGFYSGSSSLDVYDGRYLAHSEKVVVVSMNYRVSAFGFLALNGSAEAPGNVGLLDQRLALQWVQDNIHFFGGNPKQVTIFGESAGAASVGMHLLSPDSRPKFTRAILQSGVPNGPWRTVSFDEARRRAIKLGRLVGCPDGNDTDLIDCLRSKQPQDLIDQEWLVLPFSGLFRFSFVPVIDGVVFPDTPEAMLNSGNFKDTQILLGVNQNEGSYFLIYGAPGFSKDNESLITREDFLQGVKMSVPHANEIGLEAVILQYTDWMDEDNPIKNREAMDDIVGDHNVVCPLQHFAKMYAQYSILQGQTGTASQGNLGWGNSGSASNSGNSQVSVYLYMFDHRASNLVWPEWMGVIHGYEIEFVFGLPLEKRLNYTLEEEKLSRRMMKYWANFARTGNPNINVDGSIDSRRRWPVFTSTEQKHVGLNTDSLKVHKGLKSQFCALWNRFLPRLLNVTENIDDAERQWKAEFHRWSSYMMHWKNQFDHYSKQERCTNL

For O=C(NC(Cc1ccccc1)C(=O)Oc1c(O)cc2oc(-c3ccccc3)cc(=O)c2c1O)OCc1ccccc1 (stereo not given), which EC50 (SH-SY5Y [1]) is on record?
The EC50 was 4.31 µM.

And the EC50 (SH-SY5Y [2])?
Its EC50 is 24.8 µM.

With CC(C)N(CCOc1c(O)cc2oc(-c3ccc(O)cc3)cc(=O)c2c1O)C(C)C as the molecule, how does the Activity (PC-12 [3]) read?
The Activity was 72.12%.

With CCN(CC)C(=O)Oc1ccc(-c2cc(=O)c3c(O)c(OC)c(OC)cc3o2)cc1 as the molecule, how does the IC50 (Acetylcholinesterase [4]) read?
Its IC50 is 1.2 µM.

And the IC50 (Butyrylcholinesterase)?
The IC50 was 22.1 µM.

For COc1cc2oc(-c3ccc(NCCNc4c5c(nc6cc(Cl)ccc46)CCCC5)cc3)cc(=O)c2c(OC)c1OC, which IC50 (Acetylcholinesterase [5]) is on record?
The IC50 was 4.73 µM.

For COc1c(O)cc2oc(-c3ccccc3Br)cc(=O)c2c1O, which EC50 (Influenza A virus) is on record?
Its EC50 is 4 µM.

For COc1cc2oc(-c3ccc(N)cc3)cc(=O)c2c(OC)c1OC, which Activity (HepG2) is on record?
The Activity was <2%.

What about the Activity (DU-145) of the same molecule?
The Activity was 60%.

With COC(=O)c1cc(Br)ccc1OCCCOc1ccc(-c2cc(=O)c3c(OC)c(OC)c(OC)cc3o2)cc1 as the molecule, how does the IC50 (HGC-27) read?
Its IC50 is 10.3 µM.

And the IC50 (MGC-803)?
The IC50 was 17.2 µM.

Which inhibition [6] does the source give for O=c1cc(-c2cccc(-c3ccc(O)cc3)c2)oc2cc(O)cc(O)c12 here?
Its inhibition is 77.5%.

For CCN(CCCCOc1ccc(-c2cc(=O)c3c(O)c(OC)c(OC)cc3o2)cc1)Cc1ccccc1OC, which IC50 (Alpha glucosidase [7]) is on record?
Its IC50 is 25.78 µM.

With COc1c(C(C)c2ccc(O)cc2O)cc2oc(-c3ccccc3)cc(=O)c2c1O (stereo not given) as the molecule, how does the IC50 (Alpha glucosidase [8]) read?
Its IC50 is 39.21 µM.

For COc1c(O)cc2oc(-c3ccc(O)cc3)cc(=O)c2c1O [HISPIDULIN], which inhibition at 50 µM (PC-12 [9]) is on record?
The inhibition at 50 µM was 94.2%.

And the IC50 [10]?
The IC50 was 19.3 µM.

And the solubility [11]?
The solubility was 0.0153 mg/mL (≈ 51.1 µM).

Which results are given for CC(C)=CCCC(C)CCOC(=O)[C@H]1O[C@@H](Oc2cc3oc(-c4ccccc4)cc(=O)c3c(O)c2O)[C@H](O)[C@@H](O)[C@@H]1O (stereo not given in full)?
MIC (Candida albicans): 400 µM (≈ 234 µg/mL); MIC (Staphylococcus aureus): 800 µM (≈ 468 µg/mL); MIC (Escherichia coli): 3200 µM (≈ 1870 µg/mL)

Which IC50 (Acetylcholinesterase [12]) does the source give for CCN(C)C(=O)Oc1ccc(-c2cc(=O)c3c(O)c(O)c(OC(=O)N[C@@H](Cc4ccccc4)C(=O)OC(C)(C)C)cc3o2)cc1 here?
The IC50 was 4.73 µM.

What about the inhibition [13] of the same molecule?
Its inhibition is 89.2%.

And the inhibition [14]?
Its inhibition is 86.2%.

And the Activity [15]?
The Activity was 84.2%.

And the Activity [16]?
Its Activity is 78.7%.

What about the IC50 (Acetylcholinesterase [17]) of the same molecule?
Its IC50 is 6.01 µM.

And the IC50 (Acetylcholinesterase [18])?
Its IC50 is 7.91 µM.

For CC(c1cc(O)c2c(=O)cc(-c3ccccc3)oc2c1)c1ccc(O)cc1O (stereo not given), which IC50 (Alpha glucosidase [8]) is on record?
The IC50 was 44.11 µM.

Which BBB [19] does the source give for CN1C(=O)[C@@H](Cc2ccc(NC(=O)[C@H]3O[C@@H](Oc4cc5oc(-c6ccccc6)cc(=O)c5c(O)c4O)[C@H](O)[C@@H](O)[C@@H]3O)cc2)NC(=O)[C@H]1Cc1ccc2ccccc2c1 here?
The BBB was 7.22%.

For COc1c(O)cc2oc(-c3cccc(Br)c3)cc(=O)c2c1O, which EC50 (Influenza A virus) is on record?
The EC50 was 4.5 µM.
